Data set [1] can be described thus: Partition in the two phases of the Dole system. The class given is physicochemical. As to the method:
The distribution of the C18 sphingosine-based ceramides with different acyl chain lengths and of DMS between the polar phase and respectively less polar phase (as defined below) of the Dole two phase system was determined. […] The different ceramides included: short (C2 Cer and C4 Cer), medium (C6 Cer and C8 Cer), long (C16 Cer). […] In: Liposome Technology 2nd Edn., G Gregoriadis (Ed.) CRC Press, Boca Raton, 1993, vol. 1, pp: 527-616]. The amount of each of the lipids used in each of the two phases was measured by thin-layer chromatography (TLC). For ceramide quantification TLC was developed in a solvent system containing chloroform/methanol (95:5 v/v). For DMS quantification TLC was developed in a solvent system containing chloroform/methanol/ammonia (89/9/2 v/v). Further, the TLC plate was sprayed with Copper sulfate reagent composed of 100 g anhydrous copper sulfate containing 80 ml of phosphoric acid (85%), %) dissolved in 600 ml of DDW. Copper sulphate reagent was applied to the plates by spraying, then heated and lipids appeared as dark brown spot. […] Quantity of ceramides in each phase was calculated from a standard curve of appropriate ceramide. […] (1993)Supra]. The distribution between the two Dole system phases was determined by the equation (as exemplified for ceramide): [formula] [formula] Where Kp denotes the partition coefficient of a given lipid or amphiphile referred to in the equation as lipid; Cer denotes ceramide; up is an abbreviation for the heptane rich low polarity upper phase and lp is an abbreviation for the polar isopropanol water rich lower phase.

Data set [2] in a line: Surface-pressure area isotherms. Particulars: for minimal area per molecule: constant pressure of 20 mN/m; for collapse point pressure of monolayer: pure water sub-phase; for Area/molecule: table, monolayer on pure water sub-phase. The class given is physicochemical. The procedure: The tested ceramides (C2 Cer, C4 Cer, C6 Cer, C8 Cer, C16 Cer) were dried in vacuum overnight, weighted and dissolved in hexane/isopropanol (3:2 vol.) to make the following stock solutions.
The surface-pressure/area isotherms were obtained on pure water sub-phase (similar isotherms were obtained on 140 mM NaCl). Barrier speed during compression was […] for all monolayers.
The minimal area per molecule of different ceramides (C2 Cer, C4 Cer, C6 Cer, C8 Cer, C16 Cer) was calculated at the constant pressure of 20 mN/m. […] The area per molecule of C2 Cer, C4 Cer, C8 Cer, C16 Cer was about 38, 46, 45.5, and 37.5^2, respectively.

Another data set concerns C-26. The data set can be described thus: Methylene blue assay of cell survival. It is filed as cell-based, human. The note with it: Table 8B. The text has this: (§1) Several tumor cell lines in monolayers were used. A human ovarian carcinoma cell line (OV-1063), established at the Hadassah University Hospital, a human colon carcinoma cell line (C-26), a DOX-sensitive M-109S ([…]), and a DOX-resistant, M-109R ([…]). All cell lines were maintained in RPMI-1640 medium supplemented with 10% FCS, antibiotics, and glutamine. All culture medium components were purchased from Biological Industries (Beit-HaEmek, Israel). Both cell lines were maintained at 37° C. in a water-jacketed CO2 incubator.
(§2) a) Various ceramides (Cer) with different chain lengths: short (C2 Cer and C4 Cer), medium (C6 Cer and C8 Cer), and long (C16 Cer) were first dissolved in 100% ethanol to a concentration of 30 mM, added to a serum-containing medium and mixed immediately. The final ethanol concentration in the serum-containing culture medium ranged from 0.1-0.5% (depending on the type of ceramide (Cer)).
(§3) b) Various ceramides with different chain lengths: short C2 Cer, medium C6 Cer, and long C16 Cer were dissolved in ethanol:dodecane (98:2 v/v) to a concentration of 30 mM and added to serum-free medium and mixed. Final concentrations of the ethanol and dodecane in the culture medium containing 10% of FCS ranged from 0.098-0.49% and 0.002-0.01%, respectively, depending on the type of ceramide.
(§4) The cytotoxicity of the examined assemblies comprising ceramide was tested by the methylene blue ([…]) staining assay [Gorodetsky, R. et al. Int. J. Cancer. 75:635-642 (1998)]. A known number of exponentially growing cells in 200 μL of medium were plated in 96-microwell, flat-bottomed plates. For each of the variants tested, 4 wells were used. Following 24 hr of incubation in culture, 20 μL of different concentrations of the examined assemblies were added to each well containing untreated cells.
(§5) The following controls were used: Citrate buffer (5 mM, pH 7); Ethanol solution in medium RPMI 1640 (final concentration of 0.1%); A solution RPMI 1640 of ethanol:dodecane (98:2 […]) at a final concentration of 0.1% and 0.2%, respectively.
(§6) Cells were exposed to assemblies for 4, 24, 72 or 96 hr. At the end of assembly exposure, for a fixed time interval, the drug-treated cells, as well as parallel control cells, were washed, and the incubation continued in fresh medium until termination of the experiment. Following 72 hr or 96 hr of growth, cells were fixed by adding 50 μL of 2.5% glutaraldehyde to each well for 15 min. Fixed cells were rinsed 10 times with deionized water and once with borate buffer (0.1 M, pH 8.5), dried, and stained with MB (100 μL of 1% solution in 0.1 M borate buffer, pH 8.5) for 1 h at room temperature (r.t.). Stained cells were rinsed thoroughly with de-ionized water to remove any non-cell-bound dye and then dried. The MB bound to the fixed cells was extracted by incubation at 37° C. with 200 μL of 0.1 N HCl for 1 h, and the net optical density of the dye in each well was determined by a plate spectrophotometer (Labsystems Multyskan Bichromatic, Finland) at 620 nm.

The test system of a further data set is OV-1063. Kind of data set: Methylene blue assay of cell survival. It is filed as cell-based, human. The note with it: Table 8B.
Text: as §1, §2, §3, §4, §5, §6

Data set [3] in a line: Partition in the two phases of the Dole system. The class given is physicochemical. This is another data set of the same source.
For another data set, the system named is C-26 cells. The data set can be described thus: Apoptosis by chromatin morphology (Hoechst-33342, confocal microscopy). It is filed as cell-based, human. Particulars: 24 hr. As to the method:
(§7) a) The morphology of chromatin was assessed by staining with Hoechst-33342 obtained from Calbiochem (La Jolla, Calif.), a molecule which when reside in the minor groove of the DNA strand enhance its fluorescence intensity and, therefore, it is preferentially stains dsDNA [Jouvet, P. Mol. Biol. Cell 11:1919-1932 (2000)]. Briefly, samples containing 5*10^5 cells were cultured on 6-well plates covered with a glass coverslip. After treatment of cells with IC50 of drugs, cells were washed with PBS and fixated with 4% formaldehyde. After that cells were stained with Hoechst-33342 (5 μg/ml) and washed. Thereafter, glass coverslip was placed on a glass slide and photographed using a CLMS.

The next data set relates to OV-1063 cells. The data set is described as above. The class given is cell-based, human. The note with it: 24 hr. The procedure: as §7
The mark [4] stands for this setting: read-out: IC50 (μM), 24 hr C-26.
The mark [5] stands for this setting: read-out: IC50 (μM), 72 hr C-26.
The mark [6] stands for this setting: read-out: IC50 (μM), 4 hr OV-1063.
The mark [7] stands for this setting: read-out: IC50 (μM), 24 hr OV-1063.
Setting [8] is: read-out: IC50 (μM), 72 hr OV-1063.

The record followed here is patent US20060198882A1, “Stable liposomes or micelles comprising a sphinolipid and a peg-lipopolymer” (priority 2003, published 2006).

Several values for one entry are separate records, joined by “and”; a condition that tells them apart may be missing. Equal values may be shown once. Read-outs that look alike come from different tables or passages of the source.

Turning to `CCCCCCCCCCCCC/C=C/[C@@H](O)[C@H](CO)NC(=O)CCCCCCC` [C8Cer, N-octanoyl-D-erythro-sphingosine], the “Kp (heptane rich/isopropanol and water rich partition coefficient)” value in data set [1] is reported as 5.25. Also, the “% of lipid in heptane-rich upper phase” value in data set [1] (Dole two phase system) stood at 72%. Also, the “% of lipid in isopropanol/water lower phase” value in data set [1] (Dole two phase system) is listed as 28%. Moreover, in data set [2], the “minimal area per molecule” value is on record as around 45.5 Å^2. Moreover, the “collapse point pressure of monolayer” value in data set [2] is listed as “about 42 mN/m”. This molecule registered an Area/molecule in data set [2] of 45.5 A^2. Also, the IC50 is above 40 µM with C-26 (read-out: IC50 (μM), 4 hr C-26); 23 ± 1.4 µM with C-26 (setting [4]); 21.5 ± 2.1 µM with C-26 (setting [5]); above 40 µM in the data set with OV-1063 (setting [6]); 23.7 ± 1 µM in the data set on OV-1063 (setting [7]); 19 ± 1.4 µM in the data set on OV-1063 (setting [8]). Besides, the “Liposome formation (being a liposome forming lipid by itself)” value (“Liposome formation” below) in data set [3] is given as “No”.
As to Egg phosphatidylcholine [EPC], in data set [1] (Dole two phase system), the “% of lipid in heptane-rich upper phase” value is listed as 15.2%; the “% of lipid in isopropanol/water lower phase” value stood at 84.8%; the “Kp (heptane rich/isopropanol and water rich partition coefficient)” value was found to be 0.35. Further, in data set [3], the “Liposome formation” value is on record as “Yes”.
On the same counts, the results for “hydrogenated soybean phosphatidylcholine [HSPC]” are 36%, 64%, 1.13 and “Yes”.
As for `CCCCCCCCCCCCC/C=C/[C@@H](O)[C@H](CO)NC(=O)CCC` [C4Cer, N-tetranoyl-D-erythro-sphingosine], the “Kp (heptane rich/isopropanol and water rich partition coefficient)” value in data set [1] is on record as 0.92. The “% of lipid in heptane-rich upper phase” value in data set [1] (Dole two phase system) is 32% and 31.5%. Moreover, in data set [1] (Dole two phase system), the “% of lipid in isopropanol/water lower phase” value came to 68.5%. Moreover, the monolayer stability entry in data set [2] was “almost as stable as all the others”. The “minimal area per molecule” value in data set [2] is given as around 46 Å^2. The “collapse point pressure of monolayer” value in data set [2] is recorded as “about 42 mN/m”. The molecule further returned an Area/molecule in data set [2] of 46 A^2. Further, the IC50 with C-26 (read-out: IC50 (μM), 4 hr C-26) stood at 15.5 ± 3.5 µM; with C-26 (setting [4]), 6.25 ± 0.35 µM; in the data set on C-26 (setting [5]) it was 3.75 ± 0.35 µM; in the data set with OV-1063 (setting [6]), 10 ± 2.7 µM; in the data set with OV-1063 (setting [7]) it was 5.9 ± 0.14 µM; in the data set on OV-1063 (setting [8]), 3.95 ± 0.6 µM. In addition, the “Apoptotic C-26 cells (% of total cell number), 24 hr” value in the data set on C-26 cells worked out at 10%. The “Apoptotic OV-1063 cells (% of total cell number), 24 hr” value in the data set on OV-1063 cells was 58%. Further, the “Liposome formation” value in data set [3] was “No”.
